Measurements as given in patent publication US6867320B2, “Substituted phenylalkanoic acid derivatives and use thereof” (Asahi Kasei Pharma Corporation, priority 2002, dated 2005).

These compounds were tested on PGE2 production from IL-1β-stimulated MG-63 cells (assay: Suppressing action on PGE2 production from IL-1β-stimulated MG-63 cells). Settings: Homo sapiens, IL-1β 1 ng/ml, 18 hours, read-out: PGE2 production suppression ratio.
Format: cell-based
Text: 1. Suppressing Action on PGE2 Production from IL-1β-Stimulated MG-63 Cells (1) Method for Measurement
An action of suppressing PGE2 production caused by interleukin (IL) 1β as an inflammatory stimulant was studied by the following method. Cells of MG-63, which is a human osteosarcoma cell line (purchased from Dainippon Pharmaceutical), were suspended in EMEM medium (GIBCO) containing 10% fetal bovine serum (BioFluid), and then inoculated to each well of 96-well culture plate at a density of 2×10^4 cells/well and cultured overnight. The medium was changed to EMEM medium containing 0.5% fetal bovine serum, and then a test compound was added with each well. Human interleukin-1β (ENDOGEN) was further added as an inflammatory stimulant at a final concentration of 1 ng/ml. The cells were further cultured for 18 hours. The culture supernatant was collected, and the PGE2 concentration in the culture supernatant was measured by using EIA kit (CAYMAN). By using a well which was not added with the stimulant as a negative control and a well which was added only with the stimulant as a positive control, suppression ratios on PGE2 production were calculated from produced amounts of PGE2 in the well added with the test compound using the following equation. PGE2 production suppression ratio=[1−(C−B)/(A−B)]×100 • A: PGE2 production amount of positive control • B: PGE2 production amount of negative control • C: PGE2 production amount in well added with test compound

| SMILES | inhibition at 0.4 µM [%] |
| --- | --- |
| Cn1cc(C=O)c2cc(-c3cc(CCC(=O)O)ccc3OCC3CCCC3)ccc21 [Compound 255, 3-[4-cyclopentylmethyloxy-3-(3-formyl-1-methyl-1H-indol-5-yl)phenyl]propionic acid] | ≥ 50 |
| O=C(O)CCc1ccc(OCc2ccccc2)c(-c2ccc3ccccc3c2)c1 [Compound 323, 3-[4-benzyloxy-3-(naphthalen-2-yl)phenyl]propionic acid] | ≥ 50 |
| CN(C)c1ccc2cc(-c3cc(CCC(=O)O)ccc3OCC3CCCC3)ccc2c1 [Compound 018, 3-{4-cyclopentylmethyloxy-3-[6-(N,N-dimethylamino)naphthalen-2-yl]phenyl}propionic acid] | ≥ 50 |
| O=C(O)CCc1ccc(OCc2ccc(C(F)(F)F)cc2)c(-c2ccc3[nH]ccc3c2)c1 [Compound 172, 3-{3-(1H-indol-5-yl)-4-[4-(trifluoromethyl)phenylmethyloxy]-phenyl}propionic acid] | ≥ 50 |
| O=C(O)CCc1ccc(OCC2CCCC2)c(-c2ccc3[nH]c(=O)sc3c2)c1 [Compound 310, 3-[4-cyclopentylmethyloxy-3-(2-oxo-2,3-dihydrobenzothiazol-6-yl)-phenyl]propionic acid] | ≥ 50 |
| O=C(O)CCc1ccc(OCC2CCCCC2)c(-c2ccc3ncccc3c2)c1 [Compound 319, 3-[4-cyclohexylmethyloxy-3-(quinolin-6-yl)phenyl]propionic acid] | ≥ 50 |
| Cc1nc2cc(-c3cc(CCC(=O)O)ccc3OCC3CCCC3)ccc2s1 [Compound 283, 3-[4-cyclopentylmethyloxy-3-(2-methylbenzothiazol-5-yl)phenyl]propionic acid] | ≥ 50 |
| Cc1nn(C)c2ccc(-c3cc(CCC(=O)O)ccc3OC3CCCC3)cc12 [Compound 576, 3-[4-cyclopentyloxy-3-(1,3-dimethyl-1H-indazol-5-yl)phenyl]propionic acid] | ≥ 50 |
| CC(C)(C)c1ccc(COc2ccc(CCC(=O)O)cc2-c2ccc3[nH]ccc3c2)cc1 [Compound 327, 3-[4-(4-t-butylphenylmethyloxy)-3-(1H-indol-5-yl)phenyl]propionic acid] | ≥ 50 |
| CC(C)Oc1ccc(CCC(=O)O)cc1-c1ccc2ccccc2c1 [Compound 041, 3-[4-isopropyloxy-3-(naphthalen-2-yl)phenyl]propionic acid] | ≥ 50 |
| Cn1ccc2c(-c3cc(CCC(=O)O)ccc3OCC3CCCC3)cccc21 [Compound 122, 3-[4-cyclopentylmethyloxy-3-(1-methyl-1H-indol-4-yl)phenyl]propionic acid] | ≥ 50 |
| O=C(O)CCc1ccc(OCc2cccnc2)c(-c2ccc3ccccc3c2)c1 [Compound 060, 3-{3-(naphthalen-2-yl)-4-[(pyridin-3-yl)methyloxy]phenyl}propionic acid] | ≥ 50 |
| O=C(O)CCc1ccc(OCC2CCCCC2)c(-c2cccc3ccccc23)c1 [Compound 070, 3-[4-cyclohexylmethyloxy-3-(naphthalen-1-yl)phenyl]propionic acid] | ≥ 50 |
| O=C(O)Cc1ccc(OCC2CCCCC2)c(-c2ccc3ccccc3c2)c1 [Compound 096, 4-cyclohexylmethyloxy-3-(naphthalen-2-yl)phenylacetic acid] | ≥ 50 |
| O=C(O)CCc1ccc(OCC2CCCCC2)c(-c2ccc3[nH]c(=O)ccc3c2)c1 [Compound 321, 3-[4-cyclohexylmethyloxy-3-(2-oxo-1,2-dihydroquinolin-6-yl)-phenyl]propionic acid] | ≥ 50 |
| O=C(O)CCc1ccc(OCC2CCCC2)c(-c2ccc3ccc(NC(=O)c4ccco4)cc3c2)c1 [Compound 090, 3-(4-cyclopentylmethyloxy-3-{7-[(furan-2-carbonyl)amino]naphthalen-2-yl}phenyl)propionic acid] | ≥ 50 |
| Cc1cc(CCC(=O)O)cc(-c2ccc3ccccc3c2)c1OC1CCCC1 [Compound 570, 3-[4-cyclopentyloxy-3-methyl-5-(naphthalen-2-yl)phenyl]propionic acid] | ≥ 50 |
| CCCCn1ccc2cc(-c3cc(CCC(=O)O)ccc3OCC3CCCC3)ccc21 [Compound 240, 3-[3-(1-butyl-1H-indol-5-yl)-4-cyclopentylmethyloxyphenyl]propionic acid] | ≥ 50 |
| CN(C)C(=O)COc1ccc2cc(-c3cc(CCC(=O)O)ccc3OCC3CCCCC3)ccc2c1 [Compound 074, 3-{4-cyclohexylmethyloxy-3-[6-(N,N-dimethylcarbamoylmethyloxy)-naphthalen-2-yl]phenyl}propionic acid] | ≥ 50 |
| Cc1oc2ccc(-c3cc(CCC(=O)O)ccc3OCC3CCCCC3)cc2c1C [Compound 279, 3-[4-cyclohexylmethyloxy-3-(2,3-dimethylbenzo[b]furan-5-yl)phenyl]propionic acid] | ≥ 50 |
| CN(C)S(=O)(=O)c1ccc2cc(-c3cc(CCC(=O)O)ccc3OCC3CCCC3)ccc2c1 [Compound 028, 3-{4-cyclopentylmethyloxy-3-[6-(N,N-dimethylsulfamoyl)naphthalen-2-yl]phenyl}propionic acid] | ≥ 50 |
| Cc1c[nH]c2ccc(-c3cc(CCC(=O)O)ccc3OCC3CCCC3)cc12 [Compound 112, 3-[4-cyclopentylmethyloxy-3-(3-methyl-1H-indol-5-yl)phenyl]propionic acid] | ≥ 50 |
| Nc1cc(CCC(=O)O)cc(-c2ccc3ccccc3c2)c1OC1CCCC1 [Compound 333, 3-[3-amino-4-cyclopentyloxy-5-(naphthalen-2-yl)phenyl]propionic acid] | ≥ 50 |
| COC(=O)CCc1cc(N)c(OCC2CCCC2)c(-c2ccc3ccccc3c2)c1 [Compound 094, methyl 3-[3-amino-4-cyclopentylmethyloxy-5-(naphthalen-2-yl)phenyl]propionate] | ≥ 50 |
| Cc1n[nH]c2ccc(-c3cc(CCC(=O)O)ccc3OC3CCCC3)cc12 [Compound 574, 3-[4-cyclopentyloxy-3-(3-methyl-1H-indazol-5-yl)phenyl]propionic acid] | ≥ 50 |
| O=C(O)CCc1ccc(OC2CCCCCC2)c(-c2ccc3[nH]ccc3c2)c1 [Compound 184, 3-[4-cycloheptyloxy-3-(1H-indol-5-yl)phenyl]propionic acid] | ≥ 50 |
| CC(=O)c1cn(C)c2ccc(-c3cc(CCC(=O)O)ccc3OCC3CCCC3)cc12 [Compound 259, 3-[3-(3-acetyl-1-methyl-1H-indol-5-yl)-4-cyclopentylmethyloxyphenyl]propionic acid] | ≥ 50 |
| CNS(=O)(=O)c1ccc2cc(-c3cc(CCC(=O)O)ccc3OCC3CCCC3)ccc2c1 [Compound 026, 3-{4-cyclopentylmethyloxy-3-[6-(N-methylsulfamoyl)naphthalen-2-yl]phenyl}propionic acid] | ≥ 50 |
| O=Cc1c[nH]c2ccc(-c3cc(CCC(=O)O)ccc3OCC3CCCC3)cc12 [Compound 254, 3-[4-cyclopentylmethyloxy-3-(3-formyl-1H-indol-5-yl)phenyl]propionic acid] | ≥ 50 |
| O=C(O)CCc1cc(O)c(OCC2CCCC2)c(-c2ccc3ccccc3c2)c1 [Compound 568, 3-[4-cyclopentylmethyloxy-3-hydroxy-5-(naphthalen-2-yl)phenyl]propionic acid] | ≥ 50 |
